A short description of the data set: solvent given as SMILES.

The values that follow come from the CombiSolv-Exp solvation set (Vermeire and Green 2021).

Consider `CI`, for which the “solvation free energy, 298 K” value (in Brc1cccc2ccccc12) was -3.3 kcal/mol; the “solvation free energy, 298 K” value (in CC(=O)N(C)C) is -3.63 kcal/mol; the “solvation free energy, 298 K” value (in CC(=O)OCc1ccccc1) was -3.34 kcal/mol; the “solvation free energy, 298 K” value (in CC(C)=O) is -3.56 kcal/mol; the “solvation free energy, 298 K” value (in CC(C)CC(C)(C)C) is -2.94 kcal/mol; the “solvation free energy, 298 K” value (in CCC(C)=O) was -3.48 kcal/mol. Further, the “solvation free energy, 298 K” value runs as follows: (in CCCCCCC) -3.03 kcal/mol; (in CCCCCCCC) -2.99 kcal/mol; (in CCCCCCCCO) -2.95 kcal/mol; (in CCCCCl) -3.44 kcal/mol; (in CCCCO) -3.04 kcal/mol; (in CCO) -2.99 kcal/mol. For the same molecule, the “solvation free energy, 298 K” value is -3.46 kcal/mol (in CCOC(C)=O); -3.77 kcal/mol (in CN1CCCC1=O); -3.49 kcal/mol (in CN(C)C=O); -3.21 kcal/mol (in CO); -3.47 kcal/mol (in Cc1ccc(C)cc1); -3.49 kcal/mol (in ClC(Cl)(Cl)Cl). In addition, the “solvation free energy, 298 K” value by setting is: (in ClC(Cl)Cl) -3.78 kcal/mol; (in ClCCCl) -3.62 kcal/mol; (in ClCCl) -3.83 kcal/mol; (in N#Cc1ccccc1) -3.41 kcal/mol; (in O) -0.89 kcal/mol; (in O=C1CCCCC1) -3.58 kcal/mol. The “solvation free energy, 298 K” value (in c1ccc2ncccc2c1) was -3.4 kcal/mol.

Turning to `FC(F)(F)C(Cl)Br` (centres undefined), the “solvation free energy, 298 K” value is, setting by setting: (in C1CCOC1) -5.01 kcal/mol; (in C1COCCO1) -4.41 kcal/mol; (in CC(C)=O) -4.77 kcal/mol; (in COC(C)(C)C) -4.69 kcal/mol; (in COC(C)=O) -4.61 kcal/mol.

`CCCc1ccc(O)cc1`: where the note is “in O”, the “solvation free energy, 298 K” value was -5.21 kcal/mol.

With `CCCCC#N`, the “solvation free energy, 298 K” value was -4.45 kcal/mol (in CCCCCC); -4.01 kcal/mol (in CCCCCCCCCCCCCCCC); -4.89 kcal/mol (in CCCCCCCCO); -3.49 kcal/mol (in O); -3.42 kcal/mol (in [2H]O[2H]).

Turning to `CCOP(=O)(OCC)OCC`, the “solvation free energy, 298 K” value (in O) is -7.5 kcal/mol.

`C=COC(C)=O`: the “solvation free energy, 298 K” value (in CC(C)=O) is -4.46 kcal/mol; the “solvation free energy, 298 K” value (in CCN(CC)C(C)=O) was -4.2 kcal/mol; the “solvation free energy, 298 K” value (in CCNC(C)=O) was -3.83 kcal/mol; the “solvation free energy, 298 K” value (in CCNC=O) was -3.92 kcal/mol; the “solvation free energy, 298 K” value (in CN1CCCC1=O) was -4.16 kcal/mol; the “solvation free energy, 298 K” value (in O) is -2.67 kcal/mol. Besides, the “solvation free energy, 298 K” value (in O=CN1CCOCC1) was -3.98 kcal/mol.

`CC(O)CC(C)(C)C` (centres undefined): the “solvation free energy, 298 K” value is, setting by setting: (in CCCCCCCC) -5.41 kcal/mol; (in CCCCCCCCCC) -5.33 kcal/mol.

For the molecule `OCCc1ccccc1`, the “solvation free energy, 298 K” value (in O) is -6.79 kcal/mol.

With `Cc1ccc(O)c(C)c1`, the “solvation free energy, 298 K” value runs as follows: (in CCCCCC) -6.51 kcal/mol; (in CCCCCCC) -6.48 kcal/mol; (in CCCCCCCC) -6.46 kcal/mol; (in O) -6.02 kcal/mol.

Consider `C=C1CC2CCC1C2(C)C` (centres undefined), for which, where the note is “in O”, the “solvation free energy, 298 K” value is 0.52 kcal/mol.

With `Clc1ccc(Cl)c(Cl)c1`, the “solvation free energy, 298 K” value runs as follows: (in CCCCCC) -6.98 kcal/mol; (in O) -1.16 kcal/mol.

Consider `Oc1ccc(F)cc1`, for which the “solvation free energy, 298 K” value (in O) was -6.19 kcal/mol.

As for `CC(C)OC=O`, under “in O”, the “solvation free energy, 298 K” value was -2.02 kcal/mol.

On to `CCCCC(=O)CC(C)=O`, for which the “solvation free energy, 298 K” value (in O) was -4.28 kcal/mol.

Take `C=CC(C)(CCC=C(C)C)OC(=O)CC` (centres undefined): the “solvation free energy, 298 K” value (in O) was -3.26 kcal/mol.

Consider `CN(C)C(=O)c1ccc([N+](=O)[O-])cc1`, for which the “solvation free energy, 298 K” value (in O) was -11.9 kcal/mol.

For `CC1=CC=C(C(C)C)CC1`, the “solvation free energy, 298 K” value (in O) was 0.12 kcal/mol.

Take `CCC(C)Cl` (centres undefined): the “solvation free energy, 298 K” value is -4.34 kcal/mol (in C1CCOC1); -4.24 kcal/mol (in C1CCOCC1); -4.08 kcal/mol (in C1COCCO1); -3.46 kcal/mol (in C=CCCCCCCCCCCCCCC); -3.95 kcal/mol (in CC(C)OC(C)C); -3.84 kcal/mol (in CCCCCC). Moreover, the “solvation free energy, 298 K” value by setting is: (in CCCCCl) -4.16 kcal/mol; (in COC(C)(C)C) -4.08 kcal/mol.

With `Clc1cc(Cl)c(-c2cc(Cl)c(Cl)c(Cl)c2Cl)cc1Cl`, the “solvation free energy, 298 K” value (in CCCCCCCCO) is -13.9 kcal/mol and the “solvation free energy, 298 K” value (in O) is -3.53 kcal/mol.

On to `CCCCCCCCCCCCCCCCCCC`, for which the “solvation free energy, 298 K” value runs as follows: (in CC(=O)N(C)C) -12.9 kcal/mol; (in CCCCOC(C)=O) -12.7 kcal/mol; (in CCO) -10.8 kcal/mol; (in O) 4.38 kcal/mol.

With `O=C(O)c1cccc2ccccc12`, the “solvation free energy, 298 K” value is -9.51 kcal/mol (in C=CCCCCCCC=C), -9.45 kcal/mol (in C=CCCCCCCCCCCCCCC) and -9.04 kcal/mol (in O).

Consider `CCCOC(=O)c1ccc(O)cc1`, for which the “solvation free energy, 298 K” value (in O) was -9.37 kcal/mol.

As to `Cc1ccc(C(=O)N(C)C)cc1`, the “solvation free energy, 298 K” value (in O) is -9.76 kcal/mol.
